From patent US20200017913A1, “METHODS AND SYSTEMS FOR PREDICTING TREATMENT RESPONSES IN SUBJECTS” (PRESIDENT AND FELLOWS OF HARVARD COLLEGE, priority 2017, published 2020) come the findings set out here.

Structures are written as SMILES.

This test relates to pancolitis in Patient #2. The test is described as follows: Clinical treatment course of Patient #2 with pancolitis. The class given is in vivo, human. The note with it: Patient #2, pancolitis flare, conventional therapies. As to the method: Patient #2 was evaluated by a general intestinal doctor […] to receive treatment for bloody stool. […]
This included a glucocorticoid stress dose and a vancomycin treatment.
At that point, the tissue obtained in the most recent colonoscopic biospy was gene expression (RNA) profiled according to an exemplary methodology of the present disclosure. […] In this case, the drug was indigo, an over the counter supplement, also known as Qing Dai.
With `Sc1ncnc2nc[nH]c12` [6-mercaptopurine], the “clinical response to treatment” value is given as “no improvement after 3 months”.
Regarding `CO[C@H]1/C=C/O[C@@]2(C)Oc3c(C)c(O)c4c(O)c(c5c(nc6cc(C)ccn65)c4c3C2=O)NC(=O)/C(C)=C\C=C\[C@H](C)[C@H](O)[C@@H](C)[C@@H](O)[C@@H](C)[C@H](OC(C)=O)[C@@H]1C` [Rifaximin], the “clinical response to treatment” value was “transient improvement for a couple weeks”.
The same measure for `C=CC[C@@H]1/C=C(\C)C[C@H](C)C[C@H](OC)[C@H]2O[C@@](O)(C(=O)C(=O)N3CCCC[C@H]3C(=O)O[C@H](/C(C)=C/[C@@H]3CC[C@@H](O)[C@H](OC)C3)[C@H](C)[C@@H](O)CC1=O)[C@H](C)C[C@@H]2OC` [tacrolimus]: “mild improvement but no remission”; for `CN[C@H](CC(C)C)C(=O)N[C@H]1C(=O)N[C@@H](CC(N)=O)C(=O)N[C@H]2C(=O)N[C@H]3C(=O)N[C@H](C(=O)N[C@H](C(=O)O)c4cc(O)cc(O)c4-c4cc3ccc4O)[C@H](O)c3ccc(c(Cl)c3)Oc3cc2cc(c3O[C@@H]2O[C@H](CO)[C@@H](O)[C@H](O)[C@H]2O[C@H]2C[C@](C)(N)[C@H](O)[C@H](C)O2)Oc2ccc(cc2Cl)[C@H]1O` [vancomycin]: “transient effect that lasted about a week”.
